Reference: patent publication US20230250066A1, “HERBICIDAL CINNOLINE DERIVATIVES” (SYNGENTA CROP PROTECTION AG, priority 2020, published 2023)

Experiments:
Type in all cases: in vivo
Zea mays (ZEAMX) [1] = assay: Pre-emergence herbicidal test; settings: 1000 g/ha, evaluated after 13 days
[2] = system: Echinochloa crus-galli (ECHCG); assay: Pre-emergence herbicidal test; settings: 1000 g/ha, evaluated after 13 days
Setaria faberi (SETFA) [3] = assay: Pre-emergence herbicidal test; settings: 1000 g/ha, evaluated after 13 days
[4] = system: Abutilon theophrasti (ABUTH); assay: Pre-emergence herbicidal test; settings: 1000 g/ha, evaluated after 13 days
Setaria faberi (SETFA) [5] = assay: Post-emergence herbicidal test; settings: 1000 g/ha unless otherwise stated, evaluated after 13 days
How it was run: (§1)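 Scored 0–5 for percent damage (0=0%, 5=81-100%) 13 days after spraying, typically at 1000 g/ha in acetone/water (50:50) plus 0.5% Tween 20. Post-emergence plants treated at 8 days old, grown at 24° C/16° C day/night, 14 h light, 65% humidity, watered twice daily.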

[6] = system: Amaranthus retoflexus (AMARE); assay: Post-emergence herbicidal test; settings: 1000 g/ha unless otherwise stated, evaluated after 13 days
How it was run: as §1

[7] = system: Abutilon theophrasti (ABUTH); assay: Post-emergence herbicidal test; settings: 1000 g/ha unless otherwise stated, evaluated after 13 days
How it was run: as §1

[8] = system: Ipomoea hederacea (IPOHE); assay: Post-emergence herbicidal test; settings: 1000 g/ha unless otherwise stated, evaluated after 13 days
How it was run: as §1

[9] = system: Echinochloa crus-galli (ECHCG); assay: Post-emergence herbicidal test; settings: 1000 g/ha unless otherwise stated, evaluated after 13 days
How it was run: as §1

Zea mays (ZEAMX) [10] = assay: Post-emergence herbicidal test; settings: 1000 g/ha unless otherwise stated, evaluated after 13 days
How it was run: as §1

[11] = system: Ipomoea hederacea (IPOHE); assay: Pre-emergence herbicidal test; settings: 1000 g/ha, evaluated after 13 days
[12] = system: Amaranthus retoflexus (AMARE); assay: Pre-emergence herbicidal test; settings: 1000 g/ha, evaluated after 13 days

Structure (SMILES) | percentage damage caused to the plant, five-point scale, ZEAMX (Zea mays (ZEAMX) [1]) | percentage damage caused to the plant, five-point scale, ECHCG [2] | percentage damage caused to the plant, five-point scale, SETFA (Setaria faberi (SETFA) [3]) | percentage damage caused to the plant, five-point scale, ABUTH [4] | percentage damage caused to the plant, SETFA (five-point scale) (Setaria faberi (SETFA) [5]) | percentage damage caused to the plant, AMARE (five-point scale) [6] | percentage damage caused to the plant, ABUTH (five-point scale) [7] | percentage damage caused to the plant, IPOHE (five-point scale) [8] | percentage damage caused to the plant, ECHCG (five-point scale) [9] | percentage damage caused to the plant, ZEAMX (five-point scale) (Zea mays (ZEAMX) [10]) | percentage damage caused to the plant, five-point scale, IPOHE [11] | percentage damage caused to the plant, five-point scale, AMARE [12]
CCCCCCCOC(=O)c1nn(-c2ccc(OC(F)(F)F)cc2)c2cccc(S(C)(=O)=O)c2c1=O [Compound P77, heptyl 5-methylsulfonyl-4-oxo-1-[4-(trifluoromethoxy)phenyl]cinnoline-3-carboxylate] | 0 (0=0%) | 3 (3=41-60%) | 5 (5=81-100%) | 0 (0=0%) | 4 (4=61-80%) | 0 (0=0%) | 1 (1=10-20%) | 0 (0=0%) | 3 (3=41-60%) | 0 (0=0%) | 0 (0=0%) | 0 (0=0%)
C#CCOC(=O)c1nn(-c2ccc(OC(F)(F)F)cc2)c2cccc(S(C)(=O)=O)c2c1=O [Compound P79, prop-2-ynyl 5-methylsulfonyl-4-oxo-1-[4-(trifluoromethoxy)phenyl]cinnoline-3-carboxylate] | 1 (1=10-20%) | 5 (5=81-100%) | 5 (5=81-100%) | 0 (0=0%) | 4 (4=61-80%) | 0 (0=0%) | 1 (1=10-20%) | 1 (1=10-20%) | 4 (4=61-80%) | 1 (1=10-20%) | 1 (1=10-20%) | 0 (0=0%)
C=CCOC(=O)c1nn(-c2ccc(OC(F)(F)F)cc2)c2cccc(S(C)(=O)=O)c2c1=O [Compound P80, allyl 5-methylsulfonyl-4-oxo-1-[4-(trifluoromethoxy)phenyl]cinnoline-3-carboxylate] | 1 (1=10-20%) | 4 (4=61-80%) | 5 (5=81-100%) | 0 (0=0%) | 4 (4=61-80%) | 0 (0=0%) | 1 (1=10-20%) | 1 (1=10-20%) | 3 (3=41-60%) | 1 (1=10-20%) | 0 (0=0%) | 0 (0=0%)
COC(=O)COC(=O)c1nn(-c2ccc(OC(F)(F)F)cc2)c2cccc(S(C)(=O)=O)c2c1=O [Compound P81, (2-methoxy-2-oxo-ethyl) 5-methylsulfonyl-4-oxo-1-[4-(trifluoromethoxy)phenyl]cinnoline-3-carboxylate] | 0 (0=0%) | 4 (4=61-80%) | 5 (5=81-100%) | 0 (0=0%) | 4 (4=61-80%) | 1 (1=10-20%) | 1 (1=10-20%) | 0 (0=0%) | 3 (3=41-60%) | 1 (1=10-20%) | 0 (0=0%) | 0 (0=0%)
CCCCCCCCCOC(=O)c1nn(-c2ccc(OC(F)(F)F)cc2)c2cccc(S(C)(=O)=O)c2c1=O [Compound P82, nonyl 5-methylsulfonyl-4-oxo-1-[4-(trifluoromethoxy)phenyl]cinnoline-3-carboxylate] | 0 (0=0%) | 1 (1=10-20%) | 3 (3=41-60%) | 0 (0=0%) | 0 (0=0%) | 0 (0=0%) | 1 (1=10-20%) | 1 (1=10-20%) | 1 (1=10-20%) | 1 (1=10-20%) | 0 (0=0%) | 0 (0=0%)
CS(=O)(=O)c1cccc2c1c(=O)c(C(=O)OCCCCCCCCCc1ccccc1)nn2-c1ccc(OC(F)(F)F)cc1 [Compound P83, 9-phenylnonyl 5-methylsulfonyl-4-oxo-1-[4-(trifluoromethoxy)phenyl]cinnoline-3-carboxylate] | 0 (0=0%) | 0 (0=0%) | 0 (0=0%) | 0 (0=0%) | 0 (0=0%) | 0 (0=0%) | 0 (0=0%) | 0 (0=0%) | 0 (0=0%) | 0 (0=0%) | 0 (0=0%) | 0 (0=0%)
CS(=O)(=O)c1cccc2c1c(=O)c(C(=O)OCCCc1ccccc1)nn2-c1ccc(OC(F)(F)F)cc1 [Compound P84, 3-phenylpropyl 5-methylsulfonyl-4-oxo-1-[4-(trifluoromethoxy)phenyl]cinnoline-3-carboxylate] | 0 (0=0%) | 3 (3=41-60%) | 4 (4=61-80%) | 0 (0=0%) | 4 (4=61-80%) | 0 (0=0%) | 1 (1=10-20%) | 1 (1=10-20%) | 2 (2=21-40%) | 0 (0=0%) | 0 (0=0%) | 0 (0=0%)
COC(C)(C)CCOC(=O)c1nn(-c2ccc(OC(F)(F)F)cc2)c2cccc(S(C)(=O)=O)c2c1=O [Compound P85, (3-methoxy-3-methyl-butyl) 5-methysulfonyl-4-oxo-1-[4-(trifluoromethoxy)phenyl]cinnoline-3-carboxylate] | 0 (0=0%) | 4 (4=61-80%) | 4 (4=61-80%) | 0 (0=0%) | 4 (4=61-80%) | 1 (1=10-20%) | 1 (1=10-20%) | 0 (0=0%) | 3 (3=41-60%) | 1 (1=10-20%) | 0 (0=0%) | 0 (0=0%)
CC(C)(C)CCOC(=O)c1nn(-c2ccc(OC(F)(F)F)cc2)c2cccc(S(C)(=O)=O)c2c1=O [Compound P86, 3,3-dimethylbutyl 5-methylsulfonyl-4-oxo-1-[4-(trifluoromethoxy)phenyl]cinnoline-3-carboxylate] | 1 (1=10-20%) | 5 (5=81-100%) | 4 (4=61-80%) | 1 (1=10-20%) | 4 (4=61-80%) | 0 (0=0%) | 0 (0=0%) | 0 (0=0%) | 4 (4=61-80%) | 0 (0=0%) | 0 (0=0%) | 0 (0=0%)
